Experimental findings from patent US10562898B2, “Substituted benzenesulfonamides as inhibitors of alpha-4 beta-7 integrin activity” (EA PHARMA CO., LTD., priority 2016, dated 2020) are described below.

The target in the assay is T1, α4β1 integrin (Homo sapiens, UniProt P05556+P13612).
T1 construct: a cell line Jurkat, which is known to express α4β1 integrin; endogenous in cells; host or cells: Jurkat (human T cell line)
T1 sequence (P13612 34-1032): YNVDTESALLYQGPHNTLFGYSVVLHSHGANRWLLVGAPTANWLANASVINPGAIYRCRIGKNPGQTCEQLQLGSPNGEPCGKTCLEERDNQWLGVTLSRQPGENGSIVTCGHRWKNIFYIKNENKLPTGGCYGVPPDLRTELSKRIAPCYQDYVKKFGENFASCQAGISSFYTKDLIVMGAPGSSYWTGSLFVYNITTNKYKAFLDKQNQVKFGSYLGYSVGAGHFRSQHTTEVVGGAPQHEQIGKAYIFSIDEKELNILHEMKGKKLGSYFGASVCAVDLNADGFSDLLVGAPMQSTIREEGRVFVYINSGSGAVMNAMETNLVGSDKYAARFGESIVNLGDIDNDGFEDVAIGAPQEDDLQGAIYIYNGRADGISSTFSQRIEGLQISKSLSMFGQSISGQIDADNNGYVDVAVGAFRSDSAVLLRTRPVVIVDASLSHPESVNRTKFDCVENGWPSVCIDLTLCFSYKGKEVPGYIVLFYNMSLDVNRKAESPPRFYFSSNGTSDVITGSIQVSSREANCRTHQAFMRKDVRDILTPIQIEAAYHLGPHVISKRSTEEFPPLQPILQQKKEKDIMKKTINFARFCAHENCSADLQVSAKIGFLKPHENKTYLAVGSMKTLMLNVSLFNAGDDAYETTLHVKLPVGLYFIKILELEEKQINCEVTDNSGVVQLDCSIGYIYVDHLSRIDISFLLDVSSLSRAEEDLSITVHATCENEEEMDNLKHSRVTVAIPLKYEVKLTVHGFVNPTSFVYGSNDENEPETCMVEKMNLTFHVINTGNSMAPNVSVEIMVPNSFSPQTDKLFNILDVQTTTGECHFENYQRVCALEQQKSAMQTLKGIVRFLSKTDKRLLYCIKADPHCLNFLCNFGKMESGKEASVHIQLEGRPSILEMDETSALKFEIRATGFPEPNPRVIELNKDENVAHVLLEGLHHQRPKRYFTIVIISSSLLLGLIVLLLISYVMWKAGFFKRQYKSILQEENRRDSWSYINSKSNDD
T1 sequence (P05556 21-798): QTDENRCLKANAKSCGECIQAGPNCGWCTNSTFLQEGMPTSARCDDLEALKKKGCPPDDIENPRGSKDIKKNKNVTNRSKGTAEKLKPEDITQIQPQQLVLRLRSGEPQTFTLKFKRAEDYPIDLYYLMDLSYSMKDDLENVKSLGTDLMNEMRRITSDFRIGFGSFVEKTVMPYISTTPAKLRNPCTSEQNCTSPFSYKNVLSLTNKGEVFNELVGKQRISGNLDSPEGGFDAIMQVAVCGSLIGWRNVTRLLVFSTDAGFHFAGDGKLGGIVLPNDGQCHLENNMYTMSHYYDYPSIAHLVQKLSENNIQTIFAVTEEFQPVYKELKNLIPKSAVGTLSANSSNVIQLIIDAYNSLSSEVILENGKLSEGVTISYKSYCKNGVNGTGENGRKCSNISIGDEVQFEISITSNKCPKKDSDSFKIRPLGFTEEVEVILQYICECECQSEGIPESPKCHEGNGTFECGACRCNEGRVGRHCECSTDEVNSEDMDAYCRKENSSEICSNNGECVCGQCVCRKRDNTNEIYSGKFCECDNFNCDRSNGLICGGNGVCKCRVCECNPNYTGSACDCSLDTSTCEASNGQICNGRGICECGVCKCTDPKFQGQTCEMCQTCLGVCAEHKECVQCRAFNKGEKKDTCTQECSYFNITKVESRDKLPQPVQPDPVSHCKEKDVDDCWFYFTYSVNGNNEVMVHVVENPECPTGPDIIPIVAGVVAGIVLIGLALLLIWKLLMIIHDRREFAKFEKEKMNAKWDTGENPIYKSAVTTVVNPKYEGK
Description: VCAM-1/α4β1 integrin binding inhibitory activity evaluation test (Jurkat cells binding to VCAM-1/Fc). The class given is cell-based. Conditions: recombinant human VCAM-1/Fc. As for the experimental part: (1) VCAM-1/α4β1 Integrin Binding Inhibitory Activity Evaluation Test
Each test substance was measured in terms of an ability to inhibit the VCAM-1 binding of a human T cell line, namely, a cell line Jurkat, which is known to express α4β1 integrin.
A solution of recombinant human VCAM-1/Fc (R&D Systems, Inc.) (1 μg/mL) diluted with a buffer A (carbonate buffer, pH 9.6) was placed in an amount of 50 μL/well in a 96-well microtiter plate, followed by incubation at 4° C. overnight. After the plate was washed with PBS once, 150 μL/well of Block Ace (Snow Brand Milk Products Co., Ltd.) was added, followed by incubation at room temperature for 2 hours. After removal, the plate was washed with PBS once.
Then, 100 μL of the Jurkat cells (2×10^6 cells/mL) and 100 μL of the test substance at each of various concentrations diluted with a binding buffer (DMEM containing 40 mM HEPES, 0.2% BSA, and 4 mM MnCl2) were added to the plate coated with the VCAM-1/Fc (5×10^5 cells/well), followed by incubation at 30° C. for 15 to 60 minutes. After the cells were bound to the wells, the plate was washed with PBS to remove unbound cells. A buffer C (PBS containing 1.5% Triton X-100) was added in an amount 50 μL/well to the plate to lyse the bound Jurkat cells. After 30 μL of a substrate buffer (Promega, CytoTox 96 Non-Radioactive Cytotoxicity Assay) was added to 30 μL of the cell lysate, a reaction was allowed to proceed at room temperature in the dark for 30 minutes. After 30 μL of a stop solution (Promega, CytoTox 96 Non-Radioactive Cytotoxicity Assay) was added to each, and then an absorbance at 490 nm was measured using a plate reader. The absorbance obtained here represents a detection result of an activity of lactate dehydrogenase (LDH) eluted in the supernatant of each well, that is, the absorbance is proportional to the number of Jurkat cells bound to the VCAM-1 and thus remaining on the plate. The test was performed in duplicate. Provided that the absorbance of a well containing no test substance was 100%, a cell binding rate with the test substance at each of the various concentrations was figured out, and a concentration IC50 which brought about 50% binding inhibition was calculated.
For the compound `Cc1c(C)n(C)c(=O)n(-c2ccc(C[C@H](NC(=O)c3cc(F)c(NS(=O)(=O)c4ccc(NC(=O)C5CCOCC5)cc4)cc3F)C(=O)O)cc2)c1=O` [Compound A15], the IC50 (usually the concentration needed to halve the response being measured) worked out at 0.95 µM. Regarding `Cc1cn(C)c(=O)n(-c2ccc(C[C@H](NC(=O)c3cc(F)c(NS(=O)(=O)c4ccc(NC(=O)C(C)C)cc4)cc3F)C(=O)O)cn2)c1=O` [Compound A71], the IC50 is 15 µM.

In the case of `Cc1cn(C)c(=O)n(-c2ccc(C[C@H](NC(=O)c3cc(F)c(NS(=O)(=O)c4ccc(NC(=O)C#CC(C)(C)C)cc4)cc3F)C(=O)O)cn2)c1=O` [Compound A68], the IC50 turned out to be 2.3 µM. For `Cn1c(=O)n(-c2ccc(C[C@H](NC(=O)c3cc(F)c(NS(=O)(=O)c4ccc(NC(=O)C(C)(C)C)cc4)cc3F)C(=O)O)cc2)c(=O)c2ccncc21` [Compound A1, (2S)-2-[[4-[[4-(2,2-dimethylpropanoylamino)phenyl]sulfonylamino]-2,5-difluoro-benzoyl]amino]-3-[4-(1-methyl-2,4-dioxo-pyrido[3,4-d]pyrimidin-3-yl)phenyl]propanoic acid], the concentration for half-maximal inhibition (IC50) was 0.44 µM.

On to `Cc1c(C)n(C)c(=O)n(-c2ccc(C[C@H](NC(=O)c3cc(F)c(NS(=O)(=O)c4cccc(NC(=O)C(C)(C)C)c4)cc3F)C(=O)O)cc2)c1=O` [Compound A49], for which the IC50 was 1.8 µM. Consider `Cn1c(=O)n(-c2ccc(C[C@H](NC(=O)c3cc(F)c(NS(=O)(=O)c4ccc(NC(=O)C5(c6ccccc6)CC5)cc4)cc3F)C(=O)O)cn2)c(=O)c2ccncc21` [Compound A29], for which the IC50 is 12 µM. Take `CCC(CC)C(=O)Nc1ccc(S(=O)(=O)Nc2cc(F)c(C(=O)N[C@@H](Cc3ccc(-n4c(=O)c(C)c(C)n(C)c4=O)cc3)C(=O)O)cc2F)cc1` [Compound A4]: the IC50 came to 2.5 µM.

Take `CN1CCc2c(n(C)c(=O)n(-c3ccc(C[C@H](NC(=O)c4cc(F)c(NS(=O)(=O)c5ccc(NC(=O)C(C)(C)C)cc5)cc4F)C(=O)O)cc3)c2=O)C1` [Compound A41]: the concentration for half-maximal inhibition (IC50) worked out at 0.48 µM.

`Cc1cn(C)c(=O)n(-c2ccc(C[C@H](NC(=O)c3cc(F)c(NS(=O)(=O)c4ccc(NC(=O)C5(C#N)CC5)cc4)cc3F)C(=O)O)cn2)c1=O` [Compound A60]: the IC50 is 12 µM. With `COC1(C(=O)Nc2ccc(S(=O)(=O)Nc3cc(F)c(C(=O)N[C@@H](Cc4ccc(-n5c(=O)c(C)c(C)n(C)c5=O)cc4)C(=O)O)cc3F)cc2)CC1` [Compound A17], the IC50 is 1.3 µM.

`Cc1cn(C)c(=O)n(-c2ccc(C[C@H](NC(=O)c3cc(F)c(NS(=O)(=O)c4ccc(NC(=O)C(C)(C)C)cc4)cc3F)C(=O)O)cc2)c1=O` [Compound A37]: the IC50 is 4.1 µM. For the compound `Cn1c2c(c(=O)n(-c3ccc(C[C@H](NC(=O)c4cc(F)c(NS(=O)(=O)c5ccc(NC(=O)C(C)(C)C)cc5)cc4F)C(=O)O)nc3)c1=O)CCCC2` [Compound A47], the IC50 is 4.1 µM. As to `Cc1c(C)n(C(C)C)c(=O)n(-c2ccc(C[C@H](NC(=O)c3cc(F)c(NS(=O)(=O)c4ccc(NC(=O)C(C)(C)C)cc4)cc3F)C(=O)O)cc2)c1=O` [Compound A48], the IC50 stood at 11 µM. In the case of `Cn1c2c(c(=O)n(-c3ccc(C[C@H](NC(=O)c4cc(F)c(NS(=O)(=O)c5ccc(NC(=O)C(C)(C)C)cc5)cc4F)C(=O)O)cn3)c1=O)COCC2` [Compound A44], the IC50 came out at 3.4 µM. Turning to `CN1C(=O)N(c2ccc(S(=O)(=O)Nc3cc(F)c(C(=O)N[C@@H](Cc4ccc(-n5c(=O)c6ccncc6n(C)c5=O)nc4)C(=O)O)cc3F)cc2)C(=O)C1(C)C` [Compound A38], the IC50 was 4 µM. For the compound `Cc1c(C)n(C)c(=O)n(-c2ccc(C[C@H](NC(=O)c3cc(F)c(NS(=O)(=O)c4ccc(NC(=O)C(C)(C)C)cn4)cc3F)C(=O)O)cn2)c1=O` [Compound A32], the IC50 is 4.4 µM. Regarding `Cn1c(=O)n(-c2ccc(C[C@H](NC(=O)c3cc(F)c(NS(=O)(=O)c4ccc(NC(=O)NC(C)(C)C)cc4)cc3F)C(=O)O)cc2)c(=O)c2ccncc21` [Compound A5], the IC50 came out at 2 µM. In the case of `Cc1c(C)n(C)c(=O)n(-c2ccc(C[C@H](NC(=O)c3cc(F)c(NS(=O)(=O)c4cc(NC(=O)C(C)(C)C)cs4)cc3F)C(=O)O)cc2)c1=O` [Compound A11] it was 3.2 µM. For the compound `Cn1ccc(=O)n(-c2ccc(C[C@H](NC(=O)c3cc(F)c(NS(=O)(=O)c4ccc(NC(=O)C(C)(C)C(F)(F)F)cc4)cc3F)C(=O)O)cn2)c1=O` [Compound A57], the IC50 amounted to 25 µM. With `CC(=O)Nc1ccc(S(=O)(=O)Nc2cc(F)c(C(=O)N[C@@H](Cc3ccc(-n4c(=O)c5ccncc5n(C)c4=O)cc3)C(=O)O)cc2F)cc1` [Compound A2], the IC50 was determined as 1.1 µM. Take `Cn1c2c(c(=O)n(-c3ccc(C[C@H](NC(=O)c4cc(F)c(NS(=O)(=O)c5ccc(NC(=O)C(C)(C)C)cc5)cc4F)C(=O)O)cc3)c1=O)CCOC2` [Compound A27]: the IC50 came out at 0.91 µM. In the case of `COc1cc2c(=O)n(-c3ccc(C[C@H](NC(=O)c4cc(F)c(NS(=O)(=O)c5ccc(NC(=O)C(C)(C)C)cc5)cc4F)C(=O)O)cc3)c(=O)n(C)c2cn1` [Compound A36] it was 1.8 µM; in that of `CN1CCC(=O)N(c2ccc(C[C@H](NC(=O)c3cc(F)c(NS(=O)(=O)c4ccc(NC(=O)C(C)(C)C)cc4)cc3F)C(=O)O)cn2)C1=O` [Compound A75, (2S)-2-[2,5-difluoro-4-[(4-pivalamidophenyl)sulfonamide]benzamido]-3-[6-(3-methyl-2,6-dioxotetrahydropyrimidin-1(2H)-yl)pyridin-3-yl]propanoic acid], 32 µM; in that of `Cn1c2c(c(=O)n(-c3ccc(C[C@H](NC(=O)c4cc(F)c(NS(=O)(=O)c5ccc(NC(=O)C(C)(C)C)cc5)cc4F)C(=O)O)cn3)c1=O)CCOC2` [Compound A40], 2.3 µM. Turning to `Cc1c(C)n(C)c(=O)n(-c2ccc(C[C@H](NC(=O)c3cc(F)c(NS(=O)(=O)c4ccc(NC(=O)C(C)(C)C)cc4)cc3F)C(=O)O)cn2)c1=O` [Compound A28], the IC50 was 3.6 µM. Consider `Cc1cn(C)c(=O)n(-c2ccc(C[C@H](NC(=O)c3cc(F)c(NS(=O)(=O)c4c[nH]c5cc(NC(=O)C(C)(C)C)ccc45)cc3F)C(=O)O)cn2)c1=O` [Compound A77], for which the IC50 was 7.1 µM. Turning to `Cc1cc(=O)n(-c2ccc(C[C@H](NC(=O)c3cc(F)c(NS(=O)(=O)c4ccc(NC(=O)C(C)(C)C)cc4)cc3F)C(=O)O)cc2)c(=O)n1C` [Compound A46], the IC50 is 1.8 µM. Consider `Cc1c(C)n(C)c(=O)n(-c2ccc(C[C@H](NC(=O)c3cc(F)c(NS(=O)(=O)c4cccc(NC(=O)C(C)(C)C)c4)cc3F)C(=O)O)cn2)c1=O` [Compound A50], for which the concentration for half-maximal inhibition (IC50) stood at 7.1 µM. In the case of `Cn1cc(C(F)(F)F)c(=O)n(-c2ccc(C[C@H](NC(=O)c3cc(F)c(NS(=O)(=O)c4ccc(NC(=O)C(C)(C)C)cc4)cc3F)C(=O)O)cn2)c1=O` [Compound A67], the IC50 was 19 µM. As for `Cn1c(=O)n(-c2ccc(C[C@H](NC(=O)c3cc(F)c(NS(=O)(=O)c4ccc(NC(=O)C5CCNCC5)cc4)cc3F)C(=O)O)cc2)c(=O)c2ccncc21` [Compound A6, (2S)-2-[[2,5-difluoro-4-[[4-(piperidine-4-carbonylamino)phenyl]sulfonylamino]benzoyl]amino]-3-[4-(1-methyl-2,4-dioxo-pyrido[3,4-d]pyrimidin-3-yl)phenyl]propanoic acid], the IC50 was 0.89 µM.

Take `Cc1c(C)n(C)c(=O)n(-c2ccc(C[C@H](NC(=O)c3cc(F)c(NS(=O)(=O)c4ccc(NC(=O)C5(c6ccccc6)CC5)cc4)cc3F)C(=O)O)cc2)c1=O` [Compound A30]: the IC50 was 2.7 µM.
